# Results taken from ChEMBL document CHEMBL1770054, “Enediol mimics as inhibitors of the D-arabinose 5-phosphate isomerase (KdsD) from Francisella tularensis” (Bioorg Med Chem Lett, 2011).
# “And” between values parts separate entries of the source, which are not always exact repeats. Identical values can stand only once.
# Legend:
# [1] = Inhibition of Escherichia coli arabinose phosphate isomerase
# [2] = target: Glucose-6-phosphate isomerase (Oryctolagus cuniculus, UniProt Q9N1E2); test: Inhibition of rabbit cytosolic phosphoglucose isomerase
# [3] = target: T1, Ribose-5-phosphate isomerase B (Mycobacterium tuberculosis, UniProt P9WKD7); test: Inhibition of Mycobacterium tuberculosis rpiB
# T1 sequence (P9WKD7 whole entry): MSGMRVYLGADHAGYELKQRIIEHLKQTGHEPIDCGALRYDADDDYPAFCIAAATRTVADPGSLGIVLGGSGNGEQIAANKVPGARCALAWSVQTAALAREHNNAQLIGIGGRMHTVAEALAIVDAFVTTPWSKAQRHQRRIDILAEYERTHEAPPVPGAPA
# [4] = target: T2, Arabinose 5-phosphate isomerase KdsD (Francisella tularensis subsp. tularensis (strain SCHU S4 / Schu 4), UniProt Q5NGP7)
# T2 sequence (Q5NGP7 whole entry): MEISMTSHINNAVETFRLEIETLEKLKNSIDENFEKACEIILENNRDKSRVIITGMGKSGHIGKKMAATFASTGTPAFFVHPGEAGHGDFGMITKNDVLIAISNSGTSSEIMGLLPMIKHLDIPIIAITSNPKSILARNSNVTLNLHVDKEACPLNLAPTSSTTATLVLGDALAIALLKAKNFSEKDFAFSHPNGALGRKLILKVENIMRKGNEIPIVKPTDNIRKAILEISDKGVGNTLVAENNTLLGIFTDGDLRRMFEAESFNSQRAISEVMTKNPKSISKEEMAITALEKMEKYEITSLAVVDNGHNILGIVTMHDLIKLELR
# Trypanosoma brucei = test: Antiparasitic activity against Trypanosoma brucei infected in rat L6 cells; type: functional
# L6 = test: Cytotoxicity against rat L6 cells; type: cell-based
# [5] = target: Triosephosphate isomerase (Homo sapiens, UniProt P60174); test: Inhibition of Triosephosphate isomerase
# [6] = Inhibition of xylose isomerase
# Sequence of Triosephosphate isomerase (P60174 whole entry): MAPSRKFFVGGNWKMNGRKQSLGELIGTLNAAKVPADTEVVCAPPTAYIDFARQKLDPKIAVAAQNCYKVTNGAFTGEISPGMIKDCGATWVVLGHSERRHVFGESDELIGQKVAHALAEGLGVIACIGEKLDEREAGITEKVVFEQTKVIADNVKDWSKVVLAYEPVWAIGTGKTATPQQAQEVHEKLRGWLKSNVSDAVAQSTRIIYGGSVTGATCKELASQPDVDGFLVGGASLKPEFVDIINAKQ
structure (smiles),measurement,setting,value
O=C(O)[C@H](O)[C@H](O)COP(=O)(O)O,IC50,[1],220 µM
O=C(NO)[C@@H](O)[C@H](O)[C@H](O)COP(=O)(O)O,Ki,[2],0.1 µM
O=C(NO)[C@H](O)[C@H](O)COP(=O)(O)O,Ki,[3],400 µM and 57 µM
same,IC50,[4],35 µM
CC(=O)O[C@H](COP(=O)(O)O)[C@@H](OC(C)=O)C(=O)NO,Activity,Trypanosoma brucei,229 µM
same,Activity,L6,229 µM
same,IC50,[4],7 µM
O=C(COP(=O)(O)O)NO [PHOSPHOGLYCOLOHYDROXAMATE],Ki,[5],4 µM
O=C(NO)[C@H](O)[C@H](O)CO,Ki,[6],0.1 µM
NC(=O)[C@H](O)[C@H](O)COP(=O)(O)O,Ki,[3],> 30000 µM
same,IC50,[4],10 µM
CC1(C)O[C@H](COP(=O)(O)O)[C@H](C(=O)NO)O1,IC50,[4],3000 µM
